Structures are written as SMILES. Structures can show the parent of a compound that is named as a salt. Where two headings read alike, the source gives them in different places. Where only a bound is given, the exact number is not on record here.

Usually ED50 stands for the dose that gives a 50% effect, or the effect in half of the subjects. As a reminder, the LD50 is the dose at which mortality reaches 50%.

Data set [1] relates to mice. Kind of data set: antiapomorphine activity in "climbing" test of mice. The data set is classed as in vivo. The conditions noted are these: for ED50: Mus musculus, ip, read-out: Antiapomorphine activity in "climbing" test ED50. How it is done: (§1) The compounds were introduced intraperitoneally and orally 20-60 minutes before the beginning of the test. The minimum effective doses (MED) increasing the number of water takings and increasing the period of staying in an illuminated area by at least 50%, were determined. The neuroleptic activity was detected and measured using the "rat fight" method and the "climbing" test of mice (P. Protais et al. Psychopharmacology, 50, p. 1, 1976). […] The antiemetic effect on vomiting caused by apomorphine or cisplatin was studied in pigeons (P. Presiosi et al., Arch. Int. Pharmacodyn., 298, p. 301, 1989) and mongrel dogs having a weight of 6-8 kg.

The test system of data set [2] is rat. The experiment in a line: antiaggressive activity ("rat fight" method). The data set is classed as in vivo. As to conditions: for ED50: Rattus norvegicus, read-out: Antiaggressive activity ED50. How it is done:
as §1

Data set [3] has as its system pigeons. The experiment in a line: antiemetic activity, vomiting caused by apomorphine in pigeons. As to conditions: for ED50: Columbidae, ip, read-out: Antiemetic activity, ED50. Type of data set: in vivo. The protocol: as §1
Data set [4] concerns pigeons. The experiment in a line: antiemetic activity, vomiting caused by cisplatin in pigeons. The conditions noted are these: Columbidae, ip, read-out: Antiemetic activity, ED50. The data set is classed as in vivo. The protocol: as §1
The test system of data set [5] is rats (conflict tests). The experiment in a line: anxiolytic activity in conflict situation model. Type of data set: in vivo. As to conditions: for minimal effective dose: Rattus norvegicus, read-out: Anxiolytic activity MED in conflict tests. How it is done: as §1
Data set [6] in a line: hexobarbital-potentiation effect (narcosepotentiation, nonnarcotic dose of hexobarbital). The data set is classed as in vivo. The conditions noted are these: for ED50: read-out: Hexobarbital-potentiation effect ED50.
Data set [7] in a line: myorelaxation activity, rotating rod test. The data set is classed as in vivo. As to conditions: for ED50: ip, read-out: Myorelaxation activity ED50.
Data set [8] in a line: cataleptogenic (extrapyramidic) activity. The conditions noted are these: in vivo.
Data set [9] deals with mongrel dogs. The experiment in a line: antiemetic activity, vomiting caused by cisplatin in dogs. The data set is classed as in vivo. As to conditions: Canis lupus familiaris; dog tests. The protocol: as §1
Data set [10] is described as follows: sedative activity, suppression of motor activity (spontaneous locomotion). Type of data set: in vivo. As to conditions: for ED50: ip, read-out: Sedative activity ED50, suppression of motor activity.
Data set [11] is described as follows: effect characteristic of tranquilizers and neuroleptics (anxiolytic, antiaggressive, antiapomorphine and hexobarbital-potentiation effects). The data set is classed as in vivo. As to conditions: systematic application of dihydrochloride. How it is done: as §1
In data set [12] the test system is mongrel dogs. The experiment in a line: antiemetic activity, vomiting caused by apomorphine in dogs. The data set is classed as in vivo. The conditions noted are these: Canis lupus familiaris; dog tests. How it is done:
as §1

The conditions of data set [13]: from Table 2.
Data set [14] concerns rats (avoiding illuminated area tests). The experiment in a line: anxiolytic activity by the method of avoiding illuminated areas. Type of data set: in vivo. As to conditions: for minimal effective dose: Rattus norvegicus, read-out: Anxiolytic activity MED in "avoiding illuminated area" tests. How it is done: as §1
A short description of data set [15]: sedative activity, suppression of orientation behaviour. Type of data set: in vivo. As to conditions: ip, read-out: Sedative activity ED50, suppression of orientation behaviour.
Data set [16] is described as follows: in vivo. As to conditions: ip.
Where [17] appears, read: pigeons, vomiting caused by apomorphine, i/p.
[18] abbreviates: pigeons, vomiting caused by cisplatin, i/p.
The mark [19] stands for this setting: ip, rats, i/p, minimum effective dose increasing period of staying in illuminated area by at least 50%.
Setting [20] is: po, rats, orally, minimum effective dose increasing period of staying in illuminated area by at least 50%.
The mark [21] stands for this setting: ip, rats, i/p, minimum effective dose increasing number of water takings by at least 50%, dihydrochlorides of I, VI, VII.
Setting [22] is: po, rats, orally, minimum effective dose increasing number of water takings by at least 50%, dihydrochlorides of I, VI, VII.

Turning to `CCN1CCCC1CNC(=O)c1cc(S(N)(=O)=O)ccc1OC` (centres unmarked) [Sulpyride], the ED50 in data set [1] (mice, i/p) turned out to be 8.4 ± 1.3 mg/kg; in [2] (ip, i/p), 60.6 ± 16.6 mg/kg.

In the case of `O=C(CCCN1CCC(O)(c2ccc(Cl)cc2)CC1)c1ccc(F)cc1` [Haloperidol], the ED50 came out at 3.4 ± 0.5 mg/kg in data set [3], 4.4 ± 0.9 mg/kg in data set [4] and 0.67 ± 0.06 mg/kg in data set [1]. Also, the minimal effective dose in data set [5] (ip) was > 3 mg/kg.

As to `CC12CCC(C(=O)N(CCCCN3CCN(c4ccccn4)CC3)C1=O)C2(C)C` (racemic) [Compound I, DL-3-[4-[4-(2-pyridyl)-1-piperazinyl]-butyl]-1,8,8-trimethyl-3-azabicyclo[3,2,1]octane-2,4-dione dihydrochloride], the “hexobarbital-potentiating activity compared with diazepame” value in [6] (in vivo) is reported as “essentially lower than the activity of diazepame”. The ED50 in data set [6] (ip, i/p) turned out to be 17.6 ± 2.9 mg/kg; in data set [6] (po, orally), 12.5 ± 3.14 mg/kg; in data set [7] (i/p), 44.5 ± 10 mg/kg; in data set [9], 0.013 ± 0.005 mg/kg; in data set [3] (setting [17]), 0.11 ± 0.02 mg/kg; in data set [10] (i/p), 2.8 ± 0.7 mg/kg. In addition, the ED50 in [4] (setting [18]) amounted to 0.4 ± 0.07 mg/kg; in data set [12], 0.02 ± 0.006 mg/kg; in [1] (mice, i/p), 0.7 ± 0.13 mg/kg; in data set [15] (i/p), 3.9 ± 0.9 mg/kg; in data set [2] (ip, i/p), 7.45 ± 1.6 mg/kg; in [2] (po, orally), 30.8 ± 4.14 mg/kg. The “myorelaxation activity compared with diazepame” value in data set [7] (from Table 2) was “much lower than the activity and toxicity of diazepame”. The “cataleptogenic (extrapyramidic) activity” value in data set [8] was “free of cataleptogenic (extrapyramidic) activity”. In addition, the “antiemetic effect relative to all comparable compounds (haloperidol, triphthazine, metoclopramide)” value in data set [3] (fold, versus haloperidol, triphthazine, metoclopramide, emetogen not specified (apomorphine or cisplatin)) was 10-100 times. Besides, the “antiemetic and antiapomorphine activities compared with other compounds” value in data set [3] (pigeons, from Table 3) is “substantially higher than those of other compounds”. Further, the “sedative activity compared with diazepame” value in data set [10] (from Table 2) is “much lower than the activity and toxicity of diazepame”. In data set [11], the “dose range producing anxiolytic, antiaggressive, antiapomorphine and hexobarbital-potentiation effects” value is on record as 0.1-50 mg/kg of a body weight. Also, the “toxicity compared with diazepame” value in data set [13] is “much lower than the activity and toxicity of diazepame”. Further, the “climbing test activity relative to buspirone and bicyclic imides” value in data set [1] (climbing test) is “two to four times as large”. In addition, in data set [1] (mouse, in vivo), the “apomorphine antagonism in "climbing" test compared with haloperidol” value is recorded as “comparable to haloperidol”. Further, the minimal effective dose is 1 mg/kg in data set [14] (setting [19]), 10 mg/kg in data set [14] (setting [20]), 1 mg/kg in [5] (setting [21]) and 3 mg/kg in data set [5] (setting [22]). Moreover, the “anxiolytic activity relative to compounds VI, VII” value was “three times as large” in data set [14] (two anxiety models, intraperitoneally, avoiding illuminated area) and “three times as large” in data set [5] (two anxiety models, intraperitoneally, conflict test). This compound returned an LD50 in [16] of 208 ± 20 mg/kg. Further, the “antianxiety activity relative to buspirone and said bicyclic imides” value in data set [5] (conflict situation model) was “three times as large”. For the same compound, in data set [5] (intraperitoneally), the “anxiolytic doses compared with diazepame” value was “coincide with the similar doses of diazepame”. Moreover, in data set [2] (antiaggressive test), the “antiaggressive activity relative to buspirone and bicyclic imides” value is reported as “two to four times as large”.

Consider `CN1C(=O)CN=C(c2ccccc2)c2cc(Cl)ccc21` [Diazepame], for which the ED50 in data set [6] (ip) is 0.3 ± 0.1 mg/kg; in data set [6] (po) it was 0.48 ± 0.12 mg/kg; in [7] it was 2.4 ± 0.2 mg/kg; in data set [10], 0.6 ± 0.2 mg/kg; in [15], 0.6 ± 0.2 mg/kg; in data set [2] (po), 5.9 ± 1.28 mg/kg. The minimal effective dose in data set [14] (ip), in data set [14] (po) and in data set [5] (ip) was 1 mg/kg throughout.

As for `CC12CCC(C(=O)N(CCCCN3CCN(c4ncccn4)CC3)C1=O)C2(C)C` (racemic) [VII, DL-3-[4-(2-pyrimidinyl)-1-piperazinyl]-butyl]-1,8,8-trimethyl-3azabic yclo[3,2,1]octane-2,4-dione], the ED50 amounted to 11.9 ± 2.2 mg/kg in [6] (ip, i/p); 36.5 ± 8.11 mg/kg in data set [6] (po, orally); 52.5 ± 12 mg/kg in [7] (i/p); 1.8 ± 0.4 mg/kg in data set [3] (setting [17]); 5.4 ± 2.3 mg/kg in [10] (i/p); 4.6 ± 0.8 mg/kg in data set [4] (setting [18]). The ED50 in data set [1] (mice, i/p) came to 1.31 ± 0.15 mg/kg; in data set [15] (i/p), 7.7 ± 1.6 mg/kg; in [2] (ip, i/p) it was 28.5 ± 4.2 mg/kg; in data set [2] (po, orally) it was 81.5 ± 8.3 mg/kg. Also, the minimal effective dose was 3 mg/kg in data set [14] (setting [19]), 10 mg/kg in [14] (setting [20]), 3 mg/kg in [5] (setting [21]) and 3 mg/kg in [5] (setting [22]). In data set [16], the LD50 turned out to be 211 ± 31 mg/kg.

On to `CCN(CC)CCNC(=O)c1cc(Cl)c(N)cc1OC` [Metoclopramide], for which the ED50 in data set [3] (setting [17]) worked out at 12 ± 1.7 mg/kg; in data set [4] (setting [18]) it was 9.7 ± 1.1 mg/kg.

As to `O=C1CC2(CCCC2)CC(=O)N1CCCCN1CCN(c2ncccn2)CC1` [VI, 8-[4-[4-(2-pyrimidinyl)-1-piperazinyl]butyl]-8-azaspiro[4,5]decane-7 ,9-dione], the ED50 in [6] (ip, i/p) was 8.2 ± 2.4 mg/kg; in data set [7] (i/p), 54.2 ± 8.1 mg/kg; in [10] (i/p) it was 8.7 ± 1.8 mg/kg; in data set [1] (mice, i/p) it was 2.6 ± 0.46 mg/kg; in [15] (i/p), 7.6 ± 1.9 mg/kg. Besides, the minimal effective dose in data set [14] (setting [19]) and in data set [5] (setting [21]) was 3 mg/kg each time. The LD50 in [16] came out at 140 ± 20 mg/kg.

Take `CN1CCN(CCCN2c3ccccc3Sc3ccc(C(F)(F)F)cc32)CC1` [Trifluoperazine]: the ED50 came out at 4.6 ± 0.8 mg/kg in data set [3] (setting [17]) and 5.5 ± 0.9 mg/kg in data set [4] (setting [18]).
